Measured values as given in patent US11090304B2 (Amgen Inc., priority 2018, dated 2021).
Where two headings read alike, the source gives them in different places.

Columns and labels:
[1] = biological target: GDP-bound KRAS protein (aa 1-169), containing both G12C and C118A amino acid substitutions (Homo sapiens, UniProt P01116, C118A/G12C); assay: Coupled nucleotide exchange assay (SOS-mediated, AlphaScreen); format: biochemical; conditions: 5 min compound pre-incubation
[2] = tested on: Phosphorylation of ERK1/2 in MIA PaCa-2 cells; assay: Phospho-ERK1/2 MSD assay in MIA PaCa-2 cells; format: cell-based; conditions: read-out: p-ERK IC50 (2 h; MIA PaCa-2), 2 h compound treatment
Method in brief: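 Following a 2 or 4 h incubation with titrated compound, cells receive a 10 min pulse of 10 ng/mL EGF. Phospho-ERK1/2 in RIPA lysates is then quantified by MSD immunoassay, and IC50 values come from a four-parameter logistic model.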

Sequence of GDP-bound KRAS protein (aa 1-169), containing both G12C and C118A amino acid substitutions (P01116 1-169 isoform P01116-2 G12C/C118A): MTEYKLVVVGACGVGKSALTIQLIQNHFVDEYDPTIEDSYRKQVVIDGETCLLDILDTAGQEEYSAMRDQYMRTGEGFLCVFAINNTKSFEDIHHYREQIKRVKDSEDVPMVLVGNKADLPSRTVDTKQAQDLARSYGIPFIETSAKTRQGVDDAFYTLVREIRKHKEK

Question: For C=CC(=O)N1CCN(c2nc(=O)n(-c3c(CN(C)C)ccnc3C(C)C)c3nc(-c4ccccc4F)c(Cl)cc23)[C@@H](C)C1 (atropisomer, axis not shown; (M)) [Example 152, (M)-6-Chloro-1-(4-((dimethylamino)methyl)-2-(2-propanyl)-3-pyridinyl)-7-(2-fluorophenyl)-4-((2S)-2-methyl-4-(2-propenoyl)-1-piperazinyl)pyrido[2,3-d]pyrimidin-2(1H1)-one], which IC50 ([1]; read-out: Coupled exchange IC50 (5 min)) is on record?
Answer: 84 nM

Question: What about the IC50 [2] of the same compound?
Answer: 21 nM

Question: What does the source list for C=CC(=O)N1CCN(c2nc(=O)n(-c3cccnc3C(C)C)c3nc(-c4ccccc4F)c(Cl)cc23)[C@@H](C)C1 (single isomer, unassigned) [Example 54-9-2]?
Answer: Coupled exchange IC50 (5 min) [1]: 0.046 | nda μM; IC50 [2]: 34 nM

Question: Which results are given for C=CC(=O)N1CCN(c2nc(=O)n(-c3ccccc3C3CCC3)c3nc(-c4c(O)cccc4F)c(Cl)cc23)[C@@H](C)C1 (single isomer, unassigned) [Example 54-10-2]?
Answer: Coupled exchange IC50 (5 min) [1]: 0.071 | nda μM; IC50 ([2]; Homo sapiens, MIA PaCa-2, 2 h): 60 nM

Question: How did the “Coupled exchange IC50 (5 min)” value [1] turn out when C=CC(=O)N1CCN(c2nc(=O)n(-c3cccnc3C(C)C)c3nc(-c4c(O)cccc4F)c(Cl)cc23)[C@@H](C)C1 (single isomer, unassigned) [Example 54-11-1] was run?
Answer: 0.049 | nda μM

Question: And the IC50 [2]?
Answer: 54 nM

Question: What does the source list for C=CC(=O)N1CCN(c2nc(=O)n(-c3cccnc3C(C)C)c3nc(-c4c(O)cccc4F)c(Cl)cc23)[C@@H](C)C1 (single isomer, unassigned) [Example 54-11-2]?
Answer: Coupled exchange IC50 (5 min) [1]: 0.343 | nda μM; IC50 [2]: 174 nM

Question: Which results are given for C=CC(=O)N1CCN(c2nc(=O)n(-c3ccccc3C3CCC3)c3nc(-c4ccccc4F)c(Cl)cc23)[C@@H](C)C1 (single isomer, unassigned) [Example 54-12-1]?
Answer: Coupled exchange IC50 (5 min) [1]: 0.13 | nda μM; IC50 [2]: 78 nM

Question: How did the “Coupled exchange IC50 (5 min)” value [1] turn out when C=CC(=O)N1CCN(c2nc(=O)n(-c3ccccc3C3CCC3)c3nc(-c4ccccc4F)c(Cl)cc23)[C@@H](C)C1 (single isomer, unassigned) [Example 54-12-2] was run?
Answer: 0.949 | nda μM

Question: And the IC50 [2]?
Answer: 689 nM

Question: Which results are given for C=CC(=O)N1CCN(c2nc(=O)n(-c3c(C(C)C)ccnc3C)c3nc(-c4ccccc4F)c(Cl)cc23)[C@@H](C)C1 (single isomer, unassigned) [Example 54-18-1]?
Answer: Coupled exchange IC50 (5 min) [1]: 0.044 | nda μM; IC50 [2]: 36 nM

Question: C=CC(=O)N1CCN(c2nc(=O)n(-c3c(C(C)C)ccnc3C)c3nc(-c4ccccc4F)c(Cl)cc23)[C@@H](C)C1 (single isomer, unassigned) [Example 54-18-2] was tested. Which “Coupled exchange IC50 (5 min)” value [1] did it give?
Answer: 0.729 | nda μM

Question: And the IC50 [2]?
Answer: 643 nM

Question: How did the “Coupled exchange IC50 (5 min)” value [1] turn out when C=CC(=O)N1CCN(c2nc(=O)n(-c3ccccc3C(C)C)c3nc(-c4cc(OC(F)F)ccc4F)c(Cl)cc23)[C@@H](C)C1 (single isomer, unassigned) [Example 54-51-1] was run?
Answer: 0.108 | nda μM

Question: What about the IC50 ([2]; Homo sapiens, MIA PaCa-2, 2 h) of the same compound?
Answer: 263 nM

Question: C=CC(=O)N1CCN(c2nc(=O)n(-c3c(OC)cccc3C(C)C)c3nc(-c4c(O)cccc4F)c(Cl)cc23)[C@@H](C)C1 (single isomer, unassigned) [Example 54-73-1] was tested. Which “Coupled exchange IC50 (5 min)” value [1] did it give?
Answer: 0.025 | nda μM

Question: And the IC50 [2]?
Answer: 38 nM

Question: For C=CC(=O)N1CCN(c2nc(=O)n(-c3c(OC)cccc3C(C)C)c3nc(-c4c(O)cccc4F)c(Cl)cc23)[C@@H](C)C1 (single isomer, unassigned) [Example 54-73-2], which “Coupled exchange IC50 (5 min)” value [1] is on record?
Answer: 0.368 | nda μM

Question: And the IC50 [2]?
Answer: 927 nM

Question: How did the “Coupled exchange IC50 (5 min)” value [1] turn out when C=CC(=O)N1CCN(c2nc(=O)n(-c3ccccc3C(C)C)c3nc(C4=CCCCC4)c(Cl)cc23)[C@@H](C)C1 (single isomer, unassigned) [Example 54-75-1] was run?
Answer: 0.419 | nda μM

Question: And the IC50 ([2]; Homo sapiens, MIA PaCa-2, 2 h)?
Answer: 853 nM

Question: What does the source list for C=CC(=O)N1CCN(c2nc(=O)n(-c3ccccc3C(C)C)c3nc(-c4ccc(F)cc4O)c(Cl)cc23)[C@@H](C)C1 (single isomer, unassigned) [Example 54-77-2]?
Answer: Coupled exchange IC50 (5 min) [1]: 0.136 | nda μM; IC50 ([2]; Homo sapiens, MIA PaCa-2, 2 h): 176 nM

Question: How did the “Coupled exchange IC50 (5 min)” value [1] turn out when C=CC(=O)N1CCN(c2nc(=O)n(-c3ccccc3C(C)C)c3nc(-c4cc(F)ccc4O)c(Cl)cc23)[C@@H](C)C1 (single isomer, unassigned) [Example 54-78-2] was run?
Answer: 0.212 | nda μM

Question: And the IC50 ([2]; Homo sapiens, MIA PaCa-2, 2 h)?
Answer: 311 nM

Question: Which “Coupled exchange IC50 (5 min)” value [1] does the source give for C=CC(=O)N1CCN(c2nc(=O)n(-c3ccccc3C(C)C)c3nc(-c4ccc(F)cc4F)c(Cl)cc23)[C@@H](C)C1 (single isomer, unassigned) [Example 54-85-1] here?
Answer: 3.4 | nda μM

Question: What about the IC50 [2] of the same compound?
Answer: 1510 nM

Question: C=CC(=O)N1CCN(c2nc(=O)n(-c3ccccc3C(C)C)c3nc(-c4ccc(F)cc4F)c(Cl)cc23)[C@@H](C)C1 (single isomer, unassigned) [Example 54-85-2] was tested. Which “Coupled exchange IC50 (5 min)” value [1] did it give?
Answer: 0.078 | nda μM

Question: And the IC50 [2]?
Answer: 79 nM

Question: C=CC(=O)N1CCN(c2nc(=O)n(-c3ccccc3C(C)C)c3nc(-c4cc(O)ccc4F)c(Cl)cc23)[C@@H](C)C1 (single isomer, unassigned) [Example 54-88-1] was tested. Which “Coupled exchange IC50 (5 min)” value [1] did it give?
Answer: 0.077 | nda μM

Question: What about the IC50 ([2]; Homo sapiens, MIA PaCa-2, 2 h) of the same compound?
Answer: 84 nM

Question: With C=CC(=O)N1CCN(c2nc(=O)n(-c3ccccc3C(C)C)c3nc(-c4cc(O)ccc4Cl)c(Cl)cc23)[C@@H](C)C1 (single isomer, unassigned) [Example 54-90-1] as the compound, how does the “Coupled exchange IC50 (5 min)” value [1] read?
Answer: 0.047 | nda μM

Question: What about the IC50 [2] of the same compound?
Answer: 63 nM

Question: C=CC(=O)N1CCN(c2nc(=O)n(-c3ccccc3C(C)C)c3nc(-c4cc(O)ccc4Cl)c(Cl)cc23)[C@@H](C)C1 (single isomer, unassigned) [Example 54-90-2] was tested. Which “Coupled exchange IC50 (5 min)” value [1] did it give?
Answer: 0.633 | nda μM

Question: And the IC50 [2]?
Answer: 568 nM

Question: What does the source list for C=CC(=O)N1CCN(c2nc(=O)n(-c3ccccc3C(C)C)c3nc(-c4cc(O)cc(Cl)c4Cl)c(Cl)cc23)[C@@H](C)C1 (single isomer, unassigned) [Example 54-91-1]?
Answer: Coupled exchange IC50 (5 min) [1]: 0.021 | nda μM; IC50 [2]: 33 nM

Question: Which “Coupled exchange IC50 (5 min)” value [1] does the source give for C=CC(=O)N1CCN(c2nc(=O)n(-c3ccccc3C(C)C)c3nc(-c4cc(O)cc(Cl)c4Cl)c(Cl)cc23)[C@@H](C)C1 (single isomer, unassigned) [Example 54-91-2] here?
Answer: 0.181 | nda μM

Question: And the IC50 [2]?
Answer: 509 nM

Question: Which results are given for C=CC(=O)N1CCN(c2nc(=O)n(-c3ccccc3C3(C)CC3)c3nc(-c4c(O)cccc4F)c(Cl)cc23)[C@@H](C)C1 (single isomer, unassigned) [Example 54-97-1]?
Answer: Coupled exchange IC50 (5 min) [1]: 0.971 | nda μM; IC50 [2]: 1020 nM

Question: For C=CC(=O)N1CCN(c2nc(=O)n(-c3ccccc3C3(C)CC3)c3nc(-c4c(O)cccc4F)c(Cl)cc23)[C@@H](C)C1 (single isomer, unassigned) [Example 54-97-2], which “Coupled exchange IC50 (5 min)” value [1] is on record?
Answer: 0.044 | nda μM

Question: And the IC50 [2]?
Answer: 141 nM

Question: Which results are given for C=CC(=O)N1CCN(c2nc(=O)n(-c3ccccc3C3(C)CC3)c3nc(-c4ccccc4F)c(Cl)cc23)[C@@H](C)C1 (single isomer, unassigned) [Example 54-99-2]?
Answer: Coupled exchange IC50 (5 min) [1]: 0.094 | nda μM; IC50 ([2]; Homo sapiens, MIA PaCa-2, 2 h): 174 nM

Question: For C=CC(=O)N1CCN(c2nc(=O)n(-c3cccnc3C(C)(C)C)c3nc(-c4c(O)cccc4F)c(Cl)cc23)[C@@H](C)C1 (single isomer, unassigned) [Example 54-103-1], which “Coupled exchange IC50 (5 min)” value [1] is on record?
Answer: 0.073 | nda μM

Question: And the IC50 ([2]; Homo sapiens, MIA PaCa-2, 2 h)?
Answer: 93 nM

Question: C=CC(=O)N1CCN(c2nc(=O)n(-c3c(C(C)C)cccc3N(C)C)c3nc(-c4ccccc4F)c(Cl)cc23)[C@@H](C)C1 (single isomer, unassigned) [Example 54-104-2] was tested. Which “Coupled exchange IC50 (5 min)” value [1] did it give?
Answer: 0.035 | nda μM

Question: What about the IC50 ([2]; Homo sapiens, MIA PaCa-2, 2 h) of the same compound?
Answer: 210 nM

Question: For C=CC(=O)N1CCN(c2nc(=O)n(-c3c(OC)ncnc3C(C)C)c3nc(-c4ccccc4F)c(Cl)cc23)[C@@H](C)C1 (single isomer, unassigned) [Example 54-107-2], which “Coupled exchange IC50 (5 min)” value [1] is on record?
Answer: 0.067 | nda μM

Question: And the IC50 ([2]; Homo sapiens, MIA PaCa-2, 2 h)?
Answer: 48 nM

Question: Which “Coupled exchange IC50 (5 min)” value [1] does the source give for C=CC(=O)N1CCN(c2nc(=O)n(-c3cncnc3C(C)(C)C)c3nc(-c4ccccc4F)c(Cl)cc23)[C@@H](C)C1 (single isomer, unassigned) [Example 54-110-2] here?
Answer: 0.194 | nda μM

Question: What about the IC50 ([2]; Homo sapiens, MIA PaCa-2, 2 h) of the same compound?
Answer: 119 nM

Question: Which “Coupled exchange IC50 (5 min)” value [1] does the source give for C=CC(=O)N1CCN(c2nc(=O)n(-c3cccnc3C(C)(C)C)c3nc(-c4ccccc4F)c(Cl)cc23)[C@@H](C)C1 (single isomer, unassigned) [Example 54-112-1] here?
Answer: 0.075 | nda μM

Question: And the IC50 ([2]; Homo sapiens, MIA PaCa-2, 2 h)?
Answer: 125 nM

Question: How did the “Coupled exchange IC50 (5 min)” value [1] turn out when C=CC(=O)N1CCN(c2nc(=O)n(-c3c(C)nc(C)nc3C(C)C)c3nc(-c4c(O)cccc4F)c(Cl)cc23)[C@@H](C)C1 (single isomer, unassigned) [Example 55-4-1] was run?
Answer: 0.023 | nda μM

Question: And the IC50 ([2]; Homo sapiens, MIA PaCa-2, 2 h)?
Answer: 37 nM

Question: With C=CC(=O)N1CCN(c2nc(=O)n(-c3c(C)ccnc3N(C)C)c3nc(-c4ccccc4F)c(Cl)cc23)[C@@H](C)C1 (single isomer, unassigned) [Example 55-7-2] as the compound, how does the “Coupled exchange IC50 (5 min)” value [1] read?
Answer: 0.325 | nda μM

Question: What about the IC50 ([2]; Homo sapiens, MIA PaCa-2, 2 h) of the same compound?
Answer: 587 nM

Question: Which results are given for C=CC(=O)N1CCN(c2nc(=O)n(-c3c(C)cccc3CC)c3nc(-c4ccccc4F)c(Cl)cc23)[C@@H](C)C1 (single isomer, unassigned) [Example 55-9-1]?
Answer: Coupled exchange IC50 (5 min) [1]: 0.804 | nda μM; IC50 [2]: 1350 nM

Question: Which results are given for C=CC(=O)N1CCN(c2nc(=O)n(-c3c(C)cccc3CC)c3nc(-c4ccccc4F)c(Cl)cc23)[C@@H](C)C1 (single isomer, unassigned) [Example 55-9-2]?
Answer: Coupled exchange IC50 (5 min) [1]: 0.158 | nda μM; IC50 [2]: 298 nM

Question: How did the “Coupled exchange IC50 (5 min)” value [1] turn out when C=CC(=O)N1CCN(c2nc(=O)n(-c3c(C)ccnc3CC)c3nc(-c4c(O)cccc4F)c(Cl)cc23)[C@@H](C)C1 (single isomer, unassigned) [Example 55-10-1] was run?
Answer: 0.065 | nda μM

Question: And the IC50 [2]?
Answer: 82 nM

Question: For C=CC(=O)N1CCN(c2nc(=O)n(-c3c(C)ccnc3CC)c3nc(-c4c(O)cccc4F)c(Cl)cc23)[C@@H](C)C1 (single isomer, unassigned) [Example 55-10-2], which “Coupled exchange IC50 (5 min)” value [1] is on record?
Answer: 0.266 | nda μM

Question: What about the IC50 [2] of the same compound?
Answer: 344 nM
